# Source: patent US20230303570A1, “KINASE INHIBITORS AND USES THEREOF” (ABM Therapeutics Corporation, priority 2020, published 2023)
# Target: HPK1 (MAP4K1) (Homo sapiens, UniProt Q92918)
# Assay: HPK1 (MAP4K1) kinase Lantha screen assay
# Type: biochemical
# Protocol: The effect of the compounds on the activity of HPK1 (MAP4K1) kinase were assessed by Lantha screen assay. • 1. 1×kinase buffer was prepared (50 mM HEPES, pH 7.5, 10 mM MgCl2, 4 mM DT • 2. Compound and assay plates preparation: • 2-1) The compound was diluted to 100× of the final desired highest inhibitor concentration in reaction by 100% DMSO. For example, if a compound was tested at […], then a solution at 500 µM in DMSO was prepared in this step. • 2-2) For each tested compound, the compound was transferred in tubes to one well on a 96-well storage plate and serially diluted by transferring […] of 100% DMSO in the next well and so forth for a total of 6 concentrations. • 2-3) 100 μl of 100% DMSO were added to two empty wells to serve as no compound control and no enzyme control in the same 96-well plate. The resulting plate was labeled as the source plate. • 2-4) 40 μl of compound from source plate were transferred to a new 384-well Echo plate as the intermediate plate. 100 nl of each well from the 384-well Echo plate were transferred to a 384-well assay plate in duplicates. For example, A1 of the 384-well Echo plate was transferred to A1 and A2 of the 384-well plate. A2 of the 384-well Echo plate was transferred to A3 and A4 of the 384-well plate, and so on; • 3. Kinase reaction: a solution of MAP4K1 in 1× kinase buffer at 2-fold the final concentration of each reagent in the assay was prepared. 5 μl of kinase solution was added to each well of the assay plate, except for control wells without enzyme (add 5 μl of 1× kinase buffer instead). The plate was then shaken, then incubated at room temperature for 10 min. A substrate solution of Fluorescein-PKC and ATP in 1× kinase reaction buffer at 2-fold of the final concentration of each reagent desired in the assay was prepared. 5 μl of substrate solution was added to each well of the assay plate to start reaction. The plate was shaken, then covered, and incubated at room temperature for 90 minutes.
# Kinase detection: detection solution of 2-fold of final concentration in Antibody Dilution Buffer was prepared. 10 μl of detection solution was added to each well of the assay plate to stop the reaction. The mixtures were mixed briefly with Centrifuge and incubated at room temperature 60 minutes before reading on a plate reader for fluorescence. Data was collected on Envision with excitation at 340 nm and emission at 520 nm and 495 nm.
# Chain of HPK1 (MAP4K1) (Q92918 whole entry, species assumed): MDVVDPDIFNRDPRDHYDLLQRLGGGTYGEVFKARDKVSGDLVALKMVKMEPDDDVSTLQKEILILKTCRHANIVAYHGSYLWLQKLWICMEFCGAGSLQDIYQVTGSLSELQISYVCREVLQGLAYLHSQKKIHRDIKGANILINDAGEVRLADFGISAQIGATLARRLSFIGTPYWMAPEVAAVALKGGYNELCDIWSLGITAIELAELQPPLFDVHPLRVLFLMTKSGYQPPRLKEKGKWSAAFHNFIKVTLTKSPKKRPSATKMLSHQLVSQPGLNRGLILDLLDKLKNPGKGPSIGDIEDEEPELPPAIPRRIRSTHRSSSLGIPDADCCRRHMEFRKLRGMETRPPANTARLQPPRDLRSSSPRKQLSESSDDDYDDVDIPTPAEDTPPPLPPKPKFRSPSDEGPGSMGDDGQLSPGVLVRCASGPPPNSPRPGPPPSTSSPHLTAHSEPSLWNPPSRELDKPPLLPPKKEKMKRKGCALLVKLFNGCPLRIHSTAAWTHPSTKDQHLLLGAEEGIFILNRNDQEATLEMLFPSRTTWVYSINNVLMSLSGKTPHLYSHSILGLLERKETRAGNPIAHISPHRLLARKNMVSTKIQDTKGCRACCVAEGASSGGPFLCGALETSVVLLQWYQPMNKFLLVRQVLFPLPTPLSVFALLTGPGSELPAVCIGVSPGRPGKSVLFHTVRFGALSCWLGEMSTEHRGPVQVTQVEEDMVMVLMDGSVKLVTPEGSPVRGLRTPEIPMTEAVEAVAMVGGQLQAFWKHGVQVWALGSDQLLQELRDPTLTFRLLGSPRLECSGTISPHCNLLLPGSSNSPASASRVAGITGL
row,IC50,SMILES
1,< 100 nM,"Cc1ccc(NC(=O)c2cc(C(F)(F)F)ccn2)cc1C1=Cc2cnc(Nc3ccncc3)nc2N2CCN=C12 [Compound 214, N-(4-methyl-3-(2-(pyridin-4-ylamino)-8,9-dihydroimidazo[1′,2′:1,6]pyrido[2,3-d]pyrimidin-6-yl)phenyl)-4-(trifluoromethyl)picolinamide]"
2,< 100 nM,"Cc1ccc(NC(=O)c2cc(C(F)(F)F)ccn2)cc1C1=Cc2cnc(Nc3cccnc3)nc2N2CCN=C12 [Compound 215, N-(4-methyl-3-(2-(pyridin-3-ylamino)-8,9-dihydroimidazo[1′,2′:1,6]pyrido[2,3-d]pyrimidin-6-yl)phenyl)-4-(trifluoromethyl)picolinamide]"
3,100 to 10000 nM,"Cc1ccc(NC(=O)c2cc(C(F)(F)F)ccn2)cc1C1=Cc2cnc(Nc3ccccn3)nc2N2CCN=C12 [Compound 216, N-(4-methyl-3-(2-(pyridin-2-ylamino)-8,9-dihydroimidazo[1′,2′:1,6]pyrido[2,3-d]pyrimidin-6-yl)phenyl)-4-(trifluoromethyl)picolinamide]"
4,100 to 10000 nM,"Cc1ccc(NC(=O)c2cc(C(F)(F)F)ccn2)cc1C1=Cc2cnc(Nc3ccncc3F)nc2N2CCN=C12 [Compound 219, N-(3-(2-((3-fluoropyridin-4-yl)amino)-8,9-dihydroimidazo[1′,2′:1,6]pyrido[2,3-d]pyrimidin-6-yl)-4-methylphenyl)-4-(trifluoromethyl)picolinamide]"
5,100 to 10000 nM,"Cc1ccc(NC(=O)c2cc(C(F)(F)F)ccn2)cc1C1=Cc2cnc(Nc3ncccc3F)nc2N2CCN=C12 [Compound 220, N-(3-(2-((3-fluoropyridin-2-yl)amino)-8,9-dihydroimidazo[1′,2′:1,6]pyrido[2,3-d]pyrimidin-6-yl)-4-methylphenyl)-4-(trifluoromethyl)picolinamide]"
6,< 100 nM,"COc1ccc(Nc2ncc3c(n2)N2CCN=C2C(c2cc(NC(=O)c4cc(C(F)(F)F)ccn4)ccc2C)=C3)cn1 [Compound 221, N-(3-(2-((6-methoxypyridin-3-yl)amino)-8,9-dihydroimidazo[1′,2′:1,6]pyrido[2,3-d]pyrimidin-6-yl)-4-methylphenyl)-4-(trifluoromethyl)picolinamide]"
7,< 100 nM,"COc1ncccc1Nc1ncc2c(n1)N1CCN=C1C(c1cc(NC(=O)c3cc(C(F)(F)F)ccn3)ccc1C)=C2 [Compound 222, N-(3-(2-((2-methoxypyridin-3-yl)amino)-8,9-dihydroimidazo[1′,2′:1,6]pyrido[2,3-d]pyrimidin-6-yl)-4-methylphenyl)-4-(trifluoromethyl)picolinamide]"
8,100 to 10000 nM,"COc1ccncc1Nc1ncc2c(n1)N1CCN=C1C(c1cc(NC(=O)c3cc(C(F)(F)F)ccn3)ccc1C)=C2 [Compound 223, N-(3-(2-((4-methoxypyridin-3-yl)amino)-8,9-dihydroimidazo[1′,2′:1,6]pyrido[2,3-d]pyrimidin-6-yl)-4-methylphenyl)-4-(trifluoromethyl)picolinamide]"
9,100 to 10000 nM,"Cc1ccc(NC(=O)c2cc(C(F)(F)F)ccn2)cc1C1=Cc2cnc(Nc3cnccc3O)nc2N2CCN=C12 [Compound 224, N-(3-(2-((4-hydroxypyridin-3-yl)amino)-8,9-dihydroimidazo[1′,2′:1,6]pyrido[2,3-d]pyrimidin-6-yl)-4-methylphenyl)-4-(trifluoromethyl)picolinamide]"
10,< 100 nM,"Cc1ccc(NC(=O)c2cc(C(F)(F)F)ccn2)cc1C1=Cc2cnc(Nc3ccccc3F)nc2N2CCN=C12 [Compound 225, N-(3-(2-((2-fluorophenyl)amino)-8,9-dihydroimidazo[1′,2′:1,6]pyrido[2,3-d]pyrimidin-6-yl)-4-methylphenyl)-4-(trifluoromethyl)picolinamide]"
11,< 100 nM,"Cc1ccc(NC(=O)c2cc(C(F)(F)F)ccn2)cc1C1=Cc2cnc(Nc3cccc(F)c3)nc2N2CCN=C12 [Compound 226, N-(3-(2-((3-fluorophenyl)amino)-8,9-dihydroimidazo[1′,2′:1,6]pyrido[2,3-d]pyrimidin-6-yl)-4-methylphenyl)-4-(trifluoromethyl)picolinamide]"
12,< 100 nM,"Cc1ccc(NC(=O)c2cc(C(F)(F)F)ccn2)cc1C1=Cc2cnc(Nc3ccc(F)cc3)nc2N2CCN=C12 [Compound 227, N-(3-(2-((4-fluorophenyl)amino)-8,9-dihydroimidazo[1′,2′:1,6]pyrido[2,3-d]pyrimidin-6-yl)-4-methylphenyl)-4-(trifluoromethyl)picolinamide]"
13,< 100 nM,"Cc1ccc(Nc2ncc3c(n2)N2CCN=C2C(c2cc(NC(=O)c4cc(C(F)(F)F)ccn4)ccc2C)=C3)cc1F [Compound 228, N-(3-(2-((3-fluoro-4-methylphenyl)amino)-8,9-dihydroimidazo[1′,2′:1,6]pyrido[2,3-d]pyrimidin-6-yl)-4-methylphenyl)-4-(trifluoromethyl)picolinamide]"
14,< 100 nM,"Cc1cnc(Nc2ncc3c(n2)N2CCN=C2C(c2cc(NC(=O)c4cc(C(F)(F)F)ccn4)ccc2C)=C3)s1 [Compound 232, N-(4-methyl-3-(2-((5-methylthiazol-2-yl)amino)-8,9-dihydroimidazo[1′,2′:1,6]pyrido[2,3-d]pyrimidin-6-yl)phenyl)-4-(trifluoromethyl)picolinamide]"
15,100 to 10000 nM,"Cc1ccc(NC(=O)c2cc(C(F)(F)F)ccn2)cc1C1=Cc2cnc(Nc3ccnn3C)nc2N2CCN=C12 [Compound 235, N-(4-methyl-3-(2-((1-methyl-1H-pyrazol-5-yl)amino)-8,9-dihydroimidazo[1′,2′:1,6]pyrido[2,3-d]pyrimidin-6-yl)phenyl)-4-(trifluoromethyl)picolinamide]"
16,< 100 nM,"Cc1ccc(NC(=O)c2cc(C(F)(F)F)ccn2)cc1C1=Cc2cnc(Nc3cn(C)nn3)nc2N2CCN=C12 [Compound 237, N-(4-methyl-3-(2-((1-methyl-1H-1,2,3-triazol-4-yl)amino)-8,9-dihydroimidazo[1′,2′:1,6]pyrido[2,3-d]pyrimidin-6-yl)phenyl)-4-(trifluoromethyl)picolinamide]"
17,100 to 10000 nM,"Cc1ccc(NC(=O)c2cc(C(F)(F)F)ccn2)cc1C1=Cc2cnc(Nc3nnn[nH]3)nc2N2CCN=C12 [Compound 239, N-(3-(2-((1H-tetrazol-5-yl)amino)-8,9-dihydroimidazo[1′,2′:1,6]pyrido[2,3-d]pyrimidin-6-yl)-4-methylphenyl)-4-(trifluoromethyl)picolinamide]"
18,< 100 nM,"Cc1ccc(NC(=O)c2cc(C(F)(F)F)ccn2)cc1C1=Cc2cnc(Nc3ccn[nH]3)nc2N2CCN=C12 [Compound 240, N-(3-(2-((1H-pyrazol-5-yl)amino)-8,9-dihydroimidazo[1′,2′:1,6]pyrido[2,3-d]pyrimidin-6-yl)-4-methylphenyl)-4-(trifluoromethyl)picolinamide]"
19,< 100 nM,"Cc1ccc(Nc2ncc3c(n2)N2CCN=C2C(c2cc(NC(=O)c4cc(C(F)(F)F)ccn4)c(F)cc2C)=C3)cn1 [Compound 267, N-(2-fluoro-4-methyl-5-(2-((6-methylpyridin-3-yl)amino)-8,9-dihydroimidazo[1′,2′:1,6]pyrido[2,3-d]pyrimidin-6-yl)phenyl)-4-(trifluoromethyl)picolinamide]"
20,< 100 nM,"Cc1cc(F)c(NC(=O)c2cc(C(F)(F)F)ccn2)cc1C1=Cc2cnc(Nc3ccn(C)n3)nc2N2CCN=C12 [Compound 269, N-(2-fluoro-4-methyl-5-(2-((1-methyl-1H-pyrazol-3-yl)amino)-8,9-dihydroimidazo[1′,2′:1,6]pyrido[2,3-d]pyrimidin-6-yl)phenyl)-4-(trifluoromethyl)picolinamide]"
21,100 to 10000 nM,"CNc1ncc2c(n1)N1CCN=C1C(c1cc(C(=O)Nc3cc(C(F)(F)F)ccn3)c(F)cc1C)=C2 [Compound 277, 2-fluoro-4-methyl-5-(2-(methylamino)-8,9-dihydroimidazo[1′,2′:1,6]pyrido[2,3-d]pyrimidin-6-yl)-N-(4-(trifluoromethyl)pyridin-2-yl)benzamide]"
22,> 10000 nM,"CNc1ncc2c(n1)N1CCN=C1C(c1ccc(F)c(C(=O)Nc3cc(C(F)(F)F)ccn3)c1)=C2 [Compound 278, 2-fluoro-5-(2-(methylamino)-8,9-dihydroimidazo[1′,2′:1,6]pyrido[2,3-d]pyrimidin-6-yl)-N-(4-(trifluoromethyl)pyridin-2-yl)benzamide]"
23,> 10000 nM,"CNc1ncc2c(n1)N1CCN=C1C(c1cc(NS(=O)(=O)c3cccc(C(F)(F)F)c3)ccc1C)=C2 [Compound 283, N-(4-methyl-3-(2-(methylamino)-8,9-dihydroimidazo[1′,2′:1,6]pyrido[2,3-d]pyrimidin-6-yl)phenyl)-3-(trifluoromethyl)benzenesulfonamide]"
